Experiments:
[1] = biological target: T1, FLT3 ITD (Homo sapiens, UniProt P36888); assay: DiscoverX KINOMEscan competition binding assay, FLT3 ITD; settings: 11-point 3-fold dilution
T1 construct: fused on or other part: DNA tag for qPCR detection (kinase-tagged T7 phage, or made in HEK-293 cells and then tagged with DNA)
T1 sequence (P36888 1-993): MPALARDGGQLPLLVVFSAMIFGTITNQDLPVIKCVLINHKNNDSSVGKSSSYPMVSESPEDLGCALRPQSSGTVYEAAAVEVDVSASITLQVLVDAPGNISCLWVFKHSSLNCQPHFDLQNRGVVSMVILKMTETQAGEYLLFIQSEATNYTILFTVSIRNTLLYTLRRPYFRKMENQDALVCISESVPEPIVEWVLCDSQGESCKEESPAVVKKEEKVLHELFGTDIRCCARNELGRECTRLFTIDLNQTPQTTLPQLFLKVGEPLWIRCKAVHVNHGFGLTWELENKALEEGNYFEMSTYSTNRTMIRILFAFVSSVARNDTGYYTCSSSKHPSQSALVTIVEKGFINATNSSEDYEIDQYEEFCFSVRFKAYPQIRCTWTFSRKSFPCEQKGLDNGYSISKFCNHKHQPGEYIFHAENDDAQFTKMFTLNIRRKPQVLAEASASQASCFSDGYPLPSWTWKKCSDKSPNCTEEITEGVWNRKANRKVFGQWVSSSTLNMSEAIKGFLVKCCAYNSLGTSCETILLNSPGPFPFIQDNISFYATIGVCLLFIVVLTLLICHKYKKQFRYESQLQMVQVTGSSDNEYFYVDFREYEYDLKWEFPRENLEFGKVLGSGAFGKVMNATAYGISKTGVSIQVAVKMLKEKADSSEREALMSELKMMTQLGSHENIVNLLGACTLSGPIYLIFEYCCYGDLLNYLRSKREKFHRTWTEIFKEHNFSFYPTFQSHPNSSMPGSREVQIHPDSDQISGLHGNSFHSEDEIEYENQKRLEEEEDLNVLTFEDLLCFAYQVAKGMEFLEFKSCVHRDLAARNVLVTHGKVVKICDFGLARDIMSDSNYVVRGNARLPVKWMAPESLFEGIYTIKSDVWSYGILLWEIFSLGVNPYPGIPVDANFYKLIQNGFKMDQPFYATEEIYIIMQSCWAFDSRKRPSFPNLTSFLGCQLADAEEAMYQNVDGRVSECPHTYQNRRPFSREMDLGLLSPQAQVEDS
Source text: (§1) […]. […] As a result, the data report thermodynamic interaction affinities (Kd values), rather than IC50 values that are dependent on ATP concentrations. The assay uses a DNA-tagged version of the protein kinase, and an immobilized ligand bound to a solid support. Compounds that directly or indirectly prevent kinase binding to the immobilized ligand reduce the amount of kinase captured on the solid support, which is detected using an ultra-sensitive qPCR method. Affinity constants reported from the assay have been reported to be independent of the immobilized ligand used that is coupled to the solid support (See supplemental information in Fabian, M. A. et. al., (2005) Nat. Biotechnol. 23, 329-336; Wodicka, L. M. et. al., (2010) Chem. Biol. 17, 1241-1249.)
(§2) Kinase-tagged T7 phage strains were prepared in an E. coli host derived from the BL21 strain. E. coli were grown to log-phase and infected with T7 phage and incubated with shaking at 32° C. until lysis. The lysates were centrifuged and filtered to remove cell debris. The remaining kinases were produced in HEK-293 cells and subsequently tagged with DNA for qPCR detection. Streptavidin-coated magnetic beads were treated with biotinylated small molecule ligands for 30 minutes at room temperature to generate affinity resins for kinase assays. The liganded beads were blocked with excess biotin and washed with blocking buffer (SeaBlock (Pierce), 1% BSA, 0.05% Tween 20, 1 mM DTT) to remove unbound ligand and to reduce non-specific binding. […] Test compounds were prepared as 111× stocks in 100% DMSO. Kds were determined using an 11-point 3-fold compound dilution series with three DMSO control points. All compounds for Kd measurements are distributed by acoustic transfer (non-contact dispensing) in 100% DMSO. The compounds were then diluted directly into the assays such that the final concentration of DMSO was 0.9%. All reactions were performed in polypropylene 384-well plates. Each was a final volume of 0.02 mL. […] The kinase concentration in the eluates was measured by qPCR.
(§3) Binding constants (Kds) were calculated with a standard dose-response curve using the Hill equation. The Hill Slope was set to −1. Curves were fitted using a non-linear least square fit with the Levenberg-Marquardt algorithm.

[2] = biological target: T2, FLT3 R834Q (Homo sapiens, UniProt P36888, R834Q); assay: DiscoverX KINOMEscan competition binding assay, FLT3 R834Q; settings: 11-point 3-fold dilution
T2 construct: purchased DiscoverX (KINOMEscan); host or cells: E. coli BL21-derived host (T7 phage) or HEK-293
T2 sequence (P36888 27-993 R834Q): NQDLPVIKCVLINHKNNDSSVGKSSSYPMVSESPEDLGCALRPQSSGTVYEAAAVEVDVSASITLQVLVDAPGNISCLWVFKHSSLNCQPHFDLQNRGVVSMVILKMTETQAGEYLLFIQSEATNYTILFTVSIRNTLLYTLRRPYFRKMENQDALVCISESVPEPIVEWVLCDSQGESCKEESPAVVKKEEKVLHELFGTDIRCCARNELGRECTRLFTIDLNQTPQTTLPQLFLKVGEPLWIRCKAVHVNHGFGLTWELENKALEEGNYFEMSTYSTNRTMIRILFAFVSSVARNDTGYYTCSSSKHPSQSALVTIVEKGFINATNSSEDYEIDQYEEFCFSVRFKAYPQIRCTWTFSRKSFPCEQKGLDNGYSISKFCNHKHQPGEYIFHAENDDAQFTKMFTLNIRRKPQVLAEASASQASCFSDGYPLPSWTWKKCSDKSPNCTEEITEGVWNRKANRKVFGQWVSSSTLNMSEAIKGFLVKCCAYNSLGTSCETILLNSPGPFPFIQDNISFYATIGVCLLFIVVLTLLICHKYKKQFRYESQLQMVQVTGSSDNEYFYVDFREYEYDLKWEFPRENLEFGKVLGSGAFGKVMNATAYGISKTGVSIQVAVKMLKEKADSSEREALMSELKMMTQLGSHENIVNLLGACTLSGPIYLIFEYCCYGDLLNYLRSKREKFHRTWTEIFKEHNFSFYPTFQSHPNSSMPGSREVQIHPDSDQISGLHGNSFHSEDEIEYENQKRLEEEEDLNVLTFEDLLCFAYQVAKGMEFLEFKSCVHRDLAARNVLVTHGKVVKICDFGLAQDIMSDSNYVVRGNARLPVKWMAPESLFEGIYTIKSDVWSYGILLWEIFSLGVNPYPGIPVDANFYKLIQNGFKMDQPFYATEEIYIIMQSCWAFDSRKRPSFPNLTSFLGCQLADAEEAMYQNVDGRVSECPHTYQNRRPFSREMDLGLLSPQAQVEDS
Source text: as §1, §2, §3

COc1cc2ncc(-c3nc(N[C@H]4CNCC[C@@H]4F)ncc3F)n2nc1C1CC1 [Compound 1a, 4-(6-cyclopropyl-7-methoxyimidazo[1,2-b]pyridazin-3-yl)-5-fluoro-N-((3S,4S)-4-fluoropiperidin-3-yl)pyrimidin-2-amine]
Kd [1]: 0.21 nM
Kd [2]: < 0.17 nM

FC(F)COc1cc2ncc(-c3ccnc(N[C@H]4CNCC[C@@H]4F)n3)n2nc1C1CC1 [Compound 4a, 4-(6-cyclopropyl-7-(2,2-difluoroethoxy)imidazo[1,2-b]pyridazin-3-yl)-N-((3 S,4S)-4-fluoropiperidin-3-yl)pyrimidin-2-amine]
Kd [1]: 1.7 nM
Kd [2]: 0.69 nM

COc1cc2ncc(-c3nc(N[C@H]4CNCC[C@@H]4F)ncc3F)n2nc1C(C)(C)O [Compound 45a, 2-(3-(5-fluoro-2-(((3S,4S)-4-fluoropiperidin-3-yl)amino)pyrimidin-4-yl)-7-methoxyimidazo[1,2-b]pyridazin-6-yl)propan-2-ol]
Kd [1]: < 0.17 nM
Kd [2]: 5.9 nM

CC(C)(O)c1ccc2ncc(-c3nc(N[C@H]4CNCC[C@@H]4F)ncc3F)n2c1 [Compound 46a, 2-(3-(5-fluoro-2-(((3S,4S)-4-fluoropiperidin-3-yl)amino)pyrimidin-4-yl)imidazo[1,2-a]pyridin-6-yl)propan-2-ol]
Kd [1]: 0.19 nM
Kd [2]: 4.4 nM

COc1cc2ncc(-c3nc(N[C@H]4CNCC[C@@H]4F)ncc3F)n2nc1C1COC1 [Compound 92a, 5-fluoro-N-((3S,4S)-4-fluoropiperidin-3-yl)-4-(7-methoxy-6-(oxetan-3-yl)imidazo[1,2-b]pyridazin-3-yl)pyrimidin-2-amine]
Kd [1]: 0.21 nM
Kd [2]: 0.77 nM

CC(C)(O)c1cn2c(-c3nc(N[C@H]4CNCC[C@@H]4F)ncc3F)cnc2cn1 [Compound 100a, 2-(3-(5-fluoro-2-(((3S,4S)-4-fluoropiperidin-3-yl)amino)pyrimidin-4-yl)imidazo[1,2-a]pyrazin-6-yl)propan-2-ol]
Kd [1]: 2.7 nM
Kd [2]: 40 nM

COc1cc2ncc(-c3nc(N[C@H]4CNCC[C@@H]4F)ncc3F)n2nc1N1CCCS1(=O)=O [Compound 112a, 2-(3-(5-fluoro-2-(((3S,4S)-4-fluoropiperidin-3-yl)amino)pyrimidin-4-yl)-7-methoxyimidazo[1,2-b]pyridazin-6-yl)isothiazolidine 1,1-dioxide]
Kd [1]: 0.2 nM
Kd [2]: 0.28 nM

— patent US20260226048A1, “MULTI-CYCLIC IRAK AND FLT3 INHIBITING COMPOUNDS AND USES THEREOF” (CHILDREN'S HOSPITAL MEDICAL CENTER, priority 2023, published 2026)
